Legend:
[1] = Dialysis diffusion: effect of concentration and sample size (same quantity of flumazenil); type: physicochemical; conditions: for precipitation in bags during the dialysis: rank A < B < C
Method: (§1) Dialysis tubing cellulose membrane was cut into approximately 8 cm lengths, washed with hot water for 3 hours. Tubing was then treated with 0.3% (w/v) solution of sodium sulfide at 80° C. for 1 minute, washed with hot water (60° C.) for 2 minutes and followed by acidification with 0.2% sulfuric acid. Tubing was then rinsed with hot water to remove the acid. Test formulations were added, the tubing closed with nylon closures and placed in the dialysate. At various time periods, the dialysate was sampled and the flumazenil released measured by HPLC assay.
Experiments were conducted to test the effect of different concentrations and different sample sizes (but same quantity of flumazenil) on diffusion rate.
(§2) As described in 1.1 with 600 ml of phosphate buffer pH 4.0 as dialysate.
A=0.25 g of a 1.5% flumazenil solution in NMP
B=0.125 g of a 3% flumazenil solution in NMP
C=0.083 g of a 4.5% flumazenil solution in NMP

[2] = tested on: methamphetamine cravings; conditions: clinical trials, along with hydroxyzine and gabapentin; cited from earlier work
[3] = Dialysis diffusion: effect of sample size; type: physicochemical
Method: as §1
Experiments were conducted to test the influence of sample size on diffusion rate.
as §2
A=0.125 g of a 3% flumazenil solution in NMP
B=0.250 g of a 3% flumazenil solution in NMP
C=0.500 g of a 3% flumazenil solution in NMP

In the case of CCOC(=O)c1ncn2c1CN(C)C(=O)c1cc(F)ccc1-2 [flumazenil, ethyl 8-fluoro-5,6-dihydro-5-methyl-6-oxo-4H-imidazo[1,5-a](1,4)benzodiazepine-3-carboxylate], the “% flumazenil released” value ([1]; sample B1 (0.125 g of 3% solution in NMP), 3 h) is reported as 100.4%, the “% flumazenil released” value ([1]; sample B1 (0.125 g of 3% solution in NMP), 4 h) is reported as 101.1% and the “% flumazenil released” value ([1]; sample B1 (0.125 g of 3% solution in NMP), 5 h) is reported as 100.9%. For the same compound, the “% flumazenil released” value ([1]; sample B1 (0.125 g of 3% solution in NMP), 6 h) was 101.1%, the “% flumazenil released” value ([1]; sample B2 (0.125 g of 3% solution in NMP), 1 h) was 80.6% and the “% flumazenil released” value ([1]; sample B2 (0.125 g of 3% solution in NMP), 2 h) was 92.4%. For the same compound, the “% flumazenil released” value ([1]; sample B2 (0.125 g of 3% solution in NMP), 3 h) was 97.3%, the “% flumazenil released” value ([1]; sample B2 (0.125 g of 3% solution in NMP), 4 h) was 99.3% and the “% flumazenil released” value ([1]; sample B2 (0.125 g of 3% solution in NMP), 5 h) was 100.3%. For the same compound, the “% flumazenil released” value ([1]; sample B2 (0.125 g of 3% solution in NMP), 6 h) was 100.6%, the “precipitation in bags during the dialysis” value ([1]; sample B (0.125 g of 3% solution in NMP)) was “precipitation was observed” and the “% flumazenil released” value ([1]; sample C1 (0.083 g of 4.5% solution in NMP), 1 h) was 56.1%. For the same compound, the “% flumazenil released” value ([1]; sample C1 (0.083 g of 4.5% solution in NMP), 2 h) was 79.3%, the “% flumazenil released” value ([1]; sample C1 (0.083 g of 4.5% solution in NMP), 3 h) was 92.3% and the “% flumazenil released” value ([1]; sample C1 (0.083 g of 4.5% solution in NMP), 4 h) was 98.1%. The “% flumazenil released” value ([1]; sample C1 (0.083 g of 4.5% solution in NMP), 5 h) was 100.1%, the “% flumazenil released” value ([1]; sample C1 (0.083 g of 4.5% solution in NMP), 6 h) was 100.7% and the “% flumazenil released” value ([1]; sample C2 (0.083 g of 4.5% solution in NMP), 1 h) was 43.5%. For the same compound, the “% flumazenil released” value ([1]; sample C2 (0.083 g of 4.5% solution in NMP), 2 h) was 66.1%, the “% flumazenil released” value ([1]; sample C2 (0.083 g of 4.5% solution in NMP), 3 h) was 82.3% and the “% flumazenil released” value ([1]; sample C2 (0.083 g of 4.5% solution in NMP), 4 h) was 93.6%. The “% flumazenil released” value ([1]; sample C2 (0.083 g of 4.5% solution in NMP), 5 h) was 99.2%, the “% flumazenil released” value ([1]; sample C2 (0.083 g of 4.5% solution in NMP), 6 h) was 101.2% and the “precipitation in bags during the dialysis” value ([1]; sample C (0.083 g of 4.5% solution in NMP)) was “precipitation was observed”. For the same compound, the methamphetamine cravings [2] was “substantially reduce methamphetamine cravings”, the “% flumazenil released” value ([3]; sample A1 (0.125 g of 3% solution in NMP), 1 h) was 85.8% and the “% flumazenil released” value ([3]; sample A1 (0.125 g of 3% solution in NMP), 2 h) was 94.9%. For the same compound, the “% flumazenil released” value ([3]; sample A1 (0.125 g of 3% solution in NMP), 4 h) was 100.1%, the “% flumazenil released” value ([3]; sample A1 (0.125 g of 3% solution in NMP), 6 h) was 101.8% and the “% flumazenil released” value ([3]; sample A1 (0.125 g of 3% solution in NMP), 24 h) was 101.6%. The “% flumazenil released” value ([3]; sample A2 (0.125 g of 3% solution in NMP), 1 h) was 77.9%, the “% flumazenil released” value ([3]; sample A2 (0.125 g of 3% solution in NMP), 2 h) was 90.8% and the “% flumazenil released” value ([3]; sample A2 (0.125 g of 3% solution in NMP), 4 h) was 99.1%. The “% flumazenil released” value ([3]; sample A2 (0.125 g of 3% solution in NMP), 6 h) was 101.3%, the “% flumazenil released” value ([3]; sample A2 (0.125 g of 3% solution in NMP), 24 h) was 102.0% and the “% flumazenil released” value ([3]; sample B1 (0.250 g of 3% solution in NMP), 1 h) was 50.9%. The “% flumazenil released” value ([3]; sample B1 (0.250 g of 3% solution in NMP), 2 h) was 64.7%, the “% flumazenil released” value ([3]; sample B1 (0.250 g of 3% solution in NMP), 4 h) was 87.0% and the “% flumazenil released” value ([3]; sample B1 (0.250 g of 3% solution in NMP), 6 h) was 96.3%. The “% flumazenil released” value ([3]; sample B1 (0.250 g of 3% solution in NMP), 24 h) was 101.3%, the “% flumazenil released” value ([3]; sample B2 (0.250 g of 3% solution in NMP), 1 h) was 50.9% and the “% flumazenil released” value ([3]; sample B2 (0.250 g of 3% solution in NMP), 2 h) was 65.2%. For the same compound, the “% flumazenil released” value ([3]; sample B2 (0.250 g of 3% solution in NMP), 4 h) was 87.6%, the “% flumazenil released” value ([3]; sample B2 (0.250 g of 3% solution in NMP), 6 h) was 97.8% and the “% flumazenil released” value ([3]; sample B2 (0.250 g of 3% solution in NMP), 24 h) was 101.3%. The “% flumazenil released” value ([3]; sample C1 (0.500 g of 3% solution in NMP), 1 h) was 36.6%, the “% flumazenil released” value ([3]; sample C1 (0.500 g of 3% solution in NMP), 2 h) was 45.5% and the “% flumazenil released” value ([3]; sample C1 (0.500 g of 3% solution in NMP), 4 h) was 59.3%. The “% flumazenil released” value ([3]; sample C1 (0.500 g of 3% solution in NMP), 6 h) was 70.4%, the “% flumazenil released” value ([3]; sample C1 (0.500 g of 3% solution in NMP), 24 h) was 100.8% and the “% flumazenil released” value ([3]; sample C2 (0.500 g of 3% solution in NMP), 1 h) was 46.5%. The “% flumazenil released” value ([3]; sample C2 (0.500 g of 3% solution in NMP), 2 h) was 56.0%, the “% flumazenil released” value ([3]; sample C2 (0.500 g of 3% solution in NMP), 4 h) was 71.1% and the “% flumazenil released” value ([3]; sample C2 (0.500 g of 3% solution in NMP), 6 h) was 83.1%. For the same compound, the “% flumazenil released” value ([3]; sample C2 (0.500 g of 3% solution in NMP), 24 h) was 101.0%.

Source: US20160120877A1, “PHARMACEUTICAL COMPOSITIONS FOR SUSTAINED DELIVERY OF BENZODIAZEPINE ANTAGONISTS” (priority 2010, published 2016)
